In patent publication US11701372B2, “Inhalation formulations of 1'-cyano substituted carba-nucleoside analogs” (priority 2020, dated 2023):
Read-outs that look alike come from different tables or passages of the source.

Key:
[1] = 24 hours, endogenous ATP
[2] = assay type: physicochemical; conditions: for % assay/degs: T = 0
Procedure: For each condition, samples were staged at ambient and refrigerated conditions. Samples were analyzed for % assay/degs, appearance, reconstitution time, pH, and compared to T=0. The structures of the key impurities/metabolites are shown below.

[3] = In use testing of reconstituted solutions in IV bags and IV tubings; assay type: physicochemical
Description: The IV bags and IV tubings were sampled over time and tested for % assay/degradation.

Structure (SMILES): Nc1ncnc2c1ncn2[C@@H]1O[C@H](COP(=O)(O)OP(=O)(O)OP(=O)(O)O)[C@@H](O)[C@H]1O [ATP]
- ATP Peak Area (LC-MS/MS) ([1]; Nasal Mucosa, 0.168 mg/kg inhaled deposited dose of Formula Ia): 6.47 ± 0.40 ×10^8
- ATP Peak Area (LC-MS/MS) ([1]; Nasal Mucosa, 0.536 mg/kg inhaled deposited dose of Formula Ia): 5.65 ± 0.79 ×10^8
- ATP Peak Area (LC-MS/MS) ([1]; Nasopharyngeal Mucosa, 0.168 mg/kg inhaled deposited dose of Formula Ia): 4.29 ± 0.84 ×10^8
- ATP Peak Area (LC-MS/MS) ([1]; Nasopharyngeal Mucosa, 0.536 mg/kg inhaled deposited dose of Formula Ia): 3.69 ± 0.40 ×10^8

Structure (SMILES): N#C[C@@]1(c2ccc3c(N)ncnn23)O[C@H](COP(=O)(O)Oc2ccccc2)[C@@H](O)[C@H]1O [Compound F]
- % assay/degs, difference from T = 0 ([2]; pH 1.8, 2-8° C., 2 h): 0.02%
- % assay/degs, difference from T = 0 ([2]; pH 1.8, 2-8° C., 3 h): 0.03%
- % assay/degs, difference from T = 0 ([2]; pH 1.8, 2-8° C., 8 h): 0.08%
- % assay/degs, difference from T = 0 ([2]; pH 1.8, 2-8° C., 24 h): 0.20%
- % assay/degs, difference from T = 0 ([2]; pH 1.8, 2-8° C., 48 h): 0.39%
- % assay/degs, difference from T = 0 ([2]; pH 1.8, Ambient, 1 h): 0.04%
- % assay/degs, difference from T = 0 ([2]; pH 1.8, Ambient, 2 h): 0.08%
- % assay/degs, difference from T = 0 ([2]; pH 1.8, Ambient, 3 h): 0.13%
- % assay/degs, difference from T = 0 ([2]; pH 1.8, Ambient, 8 h): 0.34%
- % assay/degs, difference from T = 0 ([2]; pH 1.8, Ambient, 24 h): 1.05%
- % assay/degs, difference from T = 0 ([2]; pH 1.8, Ambient, 48 h): 2.09%
- % assay/degs ([2]; pH 1.8): 0.08%
- % assay/degs, difference from T = 0 ([2]; pH 2.0, 2-8° C., 2 h): 0.02%
- % assay/degs, difference from T = 0 ([2]; pH 2.0, 2-8° C., 3 h): 0.02%
- % assay/degs, difference from T = 0 ([2]; pH 2.0, 2-8° C., 8 h): 0.06%
- % assay/degs, difference from T = 0 ([2]; pH 2.0, 2-8° C., 24 h): 0.13%
- % assay/degs, difference from T = 0 ([2]; pH 2.0, 2-8° C., 48 h): 0.25%
- % assay/degs, difference from T = 0 ([2]; pH 2.0, Ambient, 1 h): 0.03%
- % assay/degs, difference from T = 0 ([2]; pH 2.0, Ambient, 2 h): 0.05%
- % assay/degs, difference from T = 0 ([2]; pH 2.0, Ambient, 3 h): 0.08%
- % assay/degs, difference from T = 0 ([2]; pH 2.0, Ambient, 8 h): 0.22%
- % assay/degs, difference from T = 0 ([2]; pH 2.0, Ambient, 24 h): 0.68%
- % assay/degs, difference from T = 0 ([2]; pH 2.0, Ambient, 48 h): 1.37%
- % assay/degs ([2]; pH 2.0): 0.06%
- % assay/degs, difference from T = 0 ([2]; pH 3.5, 2-8° C., 2 h): 0.00%
- % assay/degs, difference from T = 0 ([2]; pH 3.5, 2-8° C., 8 h): 0.00%
- % assay/degs, difference from T = 0 ([2]; pH 3.5, 2-8° C., 24 h): 0.00%
- % assay/degs, difference from T = 0 ([2]; pH 3.5, 2-8° C., 48 h): 0.01%
- % assay/degs, difference from T = 0 ([2]; pH 3.5, 2-8° C., 72 h): 0.01%
- % assay/degs, difference from T = 0 ([2]; pH 3.5, 2-8° C., 96 h): 0.02%
- % assay/degs, difference from T = 0 ([2]; pH 3.5, 2-8° C., 168 h): 0.03%
- % assay/degs, difference from T = 0 ([2]; pH 3.5, Ambient, 2 h): 0.00%
- % assay/degs, difference from T = 0 ([2]; pH 3.5, Ambient, 8 h): 0.01%
- % assay/degs, difference from T = 0 ([2]; pH 3.5, Ambient, 24 h): 0.03%
- % assay/degs, difference from T = 0 ([2]; pH 3.5, Ambient, 48 h): 0.05%
- % assay/degs, difference from T = 0 ([2]; pH 3.5, Ambient, 72 h): 0.08%
- % assay/degs, difference from T = 0 ([2]; pH 3.5, Ambient, 96 h): 0.11%
- % assay/degs, difference from T = 0 ([2]; pH 3.5, Ambient, 168 h): 0.19%
- % assay/degs ([2]; pH 3.5): 0.02%
- % assay/degs, difference from T = 0 ([2]; pH 3.8, 2-8° C., 7.2 h): 0.00%
- % assay/degs, difference from T = 0 ([2]; pH 3.8, 2-8° C., 24 h): 0.00%
- % assay/degs, difference from T = 0 ([2]; pH 3.8, 2-8° C., 96 h): 0.01%
- % assay/degs, difference from T = 0 ([2]; pH 3.8, 2-8° C., 168 h): 0.01%
- % assay/degs, difference from T = 0 ([2]; pH 3.8, Ambient, 7.2 h): 0.01%
- % assay/degs, difference from T = 0 ([2]; pH 3.8, Ambient, 24 h): 0.02%
- % assay/degs, difference from T = 0 ([2]; pH 3.8, Ambient, 96 h): 0.06%
- % assay/degs, difference from T = 0 ([2]; pH 3.8, Ambient, 168 h): 0.10%
- % assay/degs ([2]; pH 3.8): 0.02%
- % assay/degs, difference from T = 0 ([2]; pH 4.0, 2-8° C., 7.2 h): 0.00%
- % assay/degs, difference from T = 0 ([2]; pH 4.0, 2-8° C., 24 h): 0.00%
- % assay/degs, difference from T = 0 ([2]; pH 4.0, 2-8° C., 96 h): 0.01%
- % assay/degs, difference from T = 0 ([2]; pH 4.0, 2-8° C., 168 h): 0.01%
- % assay/degs, difference from T = 0 ([2]; pH 4.0, Ambient, 7.2 h): 0.00%
- % assay/degs, difference from T = 0 ([2]; pH 4.0, Ambient, 24 h): 0.01%
- % assay/degs, difference from T = 0 ([2]; pH 4.0, Ambient, 96 h): 0.04%
- % assay/degs, difference from T = 0 ([2]; pH 4.0, Ambient, 168 h): 0.07%
- % assay/degs ([2]; pH 4.0): 0.02%
- % assay/degradation ([3]; 30 mg (IV Bag), 2-8° C. 24 h): 0.07 % w/w
- % assay/degradation ([3]; 30 mg (IV Bag), 2-8° C. 48 h): 0.06 % w/w
- % assay/degradation ([3]; 30 mg (IV Bag), Ambient 4 h): 0.06 % w/w
- % assay/degradation ([3]; 30 mg (IV Bag), Ambient 8 h): 0.07 % w/w
- % assay/degradation ([3]; 30 mg (IV Bag), Ambient 24 h): 0.08 % w/w
- % assay/degradation ([3]; 30 mg (IV Bag), T = 0 (2-8° C. series)): 0.06 % w/w
- % assay/degradation ([3]; 30 mg (IV Tube), Ambient 6 Hours): 0.06 % w/w
- % assay/degradation ([3]; 30 mg in 100 mL 0.9% Saline (IV Bag), T = 0 (Ambient series)): 0.06 % w/w
- % assay/degradation ([3]; 200 mg (IV Bag), 2-8° C. 24 h): 0.06 % w/w
- % assay/degradation ([3]; 200 mg (IV Bag), 2-8° C. 48 h): 0.06 % w/w
- % assay/degradation ([3]; 200 mg (IV Bag), Ambient 4 h): 0.06 % w/w
- % assay/degradation ([3]; 200 mg (IV Bag), Ambient 8 h): 0.06 % w/w
- % assay/degradation ([3]; 200 mg (IV Bag), Ambient 24 h): 0.08 % w/w
- % assay/degradation ([3]; 200 mg (IV Bag), T = 0 (2-8° C. series)): 0.06 % w/w
- % assay/degradation ([3]; 200 mg (IV Tube), Ambient 6 h): 0.06 % w/w
- % assay/degradation ([3]; 200 mg in 100 mL 0.9% Saline (IV Bag), T = 0 (Ambient series)): 0.06 % w/w
